Results taken from ChEMBL document CHEMBL4396913, “Synthesis and biological evaluation of hybrid quinolone-based quaternary ammonium antibacterial agents” (Eur J Med Chem, 2019).
In brackets after ≈: the same amount, converted by molar mass.

Columns and labels:
Bacillus spizizenii [1] = assay: Antibacterial activity against Bacillus subtilis ATCC 6633 cultured in MH medium assessed as reduction in bacterial growth incubated for 48 hrs by microbroth dilution method; assay type: functional; conditions: ATCC 6633, 48 h
Proteus vulgaris [2] = assay: Antibacterial activity against Proteus vulgaris NCTC 4635 cultured in MH medium assessed as reduction in bacterial growth incubated for 48 hrs by microbroth dilution method; assay type: functional; conditions: NCTC 4635, 48 h
[3] = test system: Staphylococcus epidermidis; assay: Antibacterial activity against Staphylococcus epidermidis ATCC 14990 cultured in MH medium assessed as reduction in bacterial growth incubated for 48 hrs by microbroth dilution method; assay type: functional; conditions: ATCC 14990, 48 h
HEK293 [4] = assay: Cytotoxicity against human HEK293 cells assessed as cell viability upto 20 uM incubated for 72 hrs by MTT assay; assay type: cell-based; conditions: hek293, 72 h
Staphylococcus aureus [5] = assay: Antibacterial activity against Staphylococcus aureus ATCC 6538 cultured in MH medium assessed as reduction in bacterial growth incubated for 48 hrs by microbroth dilution method; assay type: functional; conditions: ATCC 6538, 48 h
Serratia marcescens [6] = assay: Antibacterial activity against Serratia marcescens ATCC 12795 cultured in MH medium assessed as reduction in bacterial growth incubated for 48 hrs by microbroth dilution method; assay type: functional; conditions: ATCC 12795, 48 h
Escherichia coli [7] = assay: Antibacterial activity against Escherichia coli ATCC 8739 cultured in MH medium assessed as reduction in bacterial growth incubated for 48 hrs by microbroth dilution method; assay type: functional; conditions: ATCC 8739, 48 h
Proteus vulgaris [8] = assay: Bactericidal activity against Proteus vulgaris NCTC 4635 cultured in MH medium assessed as reduction in bacterial survival incubated for 48 hrs by microbroth dilution method; assay type: functional; conditions: NCTC 4635, 48 h
Staphylococcus aureus [9] = assay: Antibacterial activity against methicillin resistant Staphylococcus aureus 6347 cultured in MH medium assessed as reduction in bacterial growth incubated for 48 hrs by microbroth dilution method; assay type: functional; conditions: Staphylococcus aureus, 6347, 48 h
Enterococcus hirae = assay: Antibacterial activity against Enterococcus hirae ATCC 1052 cultured in BHI medium assessed as reduction in bacterial growth incubated for 48 hrs by microbroth dilution method; assay type: functional; conditions: ATCC 1052, 48 h
HEK293 [10] = assay: Cytotoxicity against human HEK293 cells assessed as changes in cell morphology upto 20 uM incubated for 72 hrs by MTT assay; assay type: cell-based; conditions: hek293, 72 h
[11] = test system: Staphylococcus epidermidis; assay: Antibacterial activity against methicillin resistant Staphylococcus epidermidis ATCC 13199 cultured in MH medium assessed as reduction in bacterial growth incubated for 48 hrs by microbroth dilution method; assay type: functional; conditions: ATCC 13199, 48 h
Staphylococcus aureus [12] = assay: Antibacterial activity against methicillin resistant Staphylococcus aureus N315 cultured in MH medium assessed as reduction in bacterial growth incubated for 48 hrs by microbroth dilution method; assay type: functional; conditions: N315, 48 h
Streptococcus pneumoniae = assay: Antibacterial activity against Streptococcus pneumoniae cultured in MH medium assessed as reduction in bacterial growth incubated for 48 hrs by microbroth dilution method; assay type: functional
[13] = Lipophilicity, log k of the compound at 100 ug/ml by micellar electrokinetic chromatography; assay type: physicochemical
Pseudomonas aeruginosa [14] = assay: Antibacterial activity against Pseudomonas aeruginosa ATCC 9027 cultured in MH medium assessed as reduction in bacterial growth incubated for 48 hrs by microbroth dilution method; assay type: functional; conditions: ATCC 9027, 48 h
Staphylococcus aureus [15] = assay: Bactericidal activity against Staphylococcus aureus ATCC 6538 cultured in MH medium assessed as reduction in bacterial survival incubated for 48 hrs by microbroth dilution method; assay type: functional; conditions: ATCC 6538, 48 h
Bacillus spizizenii [16] = assay: Bactericidal activity against Bacillus subtilis ATCC 6633 cultured in MH medium assessed as reduction in bacterial survival incubated for 48 hrs by microbroth dilution method; assay type: functional; conditions: ATCC 6633, 48 h
Staphylococcus aureus [17] = assay: Bactericidal activity against methicillin resistant Staphylococcus aureus 6347 cultured in MH medium assessed as reduction in bacterial survival incubated for 48 hrs by microbroth dilution method; assay type: functional; conditions: Staphylococcus aureus, 6347, 48 h
Pseudomonas aeruginosa [18] = assay: Bactericidal activity against Pseudomonas aeruginosa ATCC 9027 cultured in MH medium assessed as reduction in bacterial survival incubated for 48 hrs by microbroth dilution method; assay type: functional; conditions: ATCC 9027, 48 h
[19] = test system: Staphylococcus epidermidis; assay: Bactericidal activity against methicillin resistant Staphylococcus epidermidis ATCC 13199 cultured in MH medium assessed as reduction in bacterial survival incubated for 48 hrs by microbroth dilution method; assay type: functional; conditions: ATCC 13199, 48 h
[20] = test system: Staphylococcus epidermidis; assay: Bactericidal activity against Staphylococcus epidermidis ATCC 14990 cultured in MH medium assessed as reduction in bacterial survival incubated for 48 hrs by microbroth dilution method; assay type: functional; conditions: ATCC 14990, 48 h
Escherichia coli [21] = assay: Bactericidal activity against Escherichia coli ATCC 8739 cultured in MH medium assessed as reduction in bacterial survival incubated for 48 hrs by microbroth dilution method; assay type: functional; conditions: ATCC 8739, 48 h
Serratia marcescens [22] = assay: Bactericidal activity against Serratia marcescens ATCC 12795 cultured in MH medium assessed as reduction in bacterial survival incubated for 48 hrs by microbroth dilution method; assay type: functional; conditions: ATCC 12795, 48 h
Staphylococcus aureus [23] = assay: Bactericidal activity against methicillin resistant Staphylococcus aureus N315 cultured in MH medium assessed as reduction in bacterial survival incubated for 48 hrs by microbroth dilution method; assay type: functional; conditions: N315, 48 h

Row | SMILES | MIC (Bacillus spizizenii [1]) [µg/mL] | MIC (Proteus vulgaris [2]) [µg/mL] | MIC [3] [µg/mL] | Activity (HEK293 [4]) | MIC (Staphylococcus aureus [5]) [µg/mL] | MIC (Serratia marcescens [6]) [µg/mL] | MIC (Escherichia coli [7]) [µg/mL] | MBC (Proteus vulgaris [8]) [µg/mL] | MIC (Staphylococcus aureus [9]) [µg/mL] | MIC (Enterococcus hirae) [µg/mL] | Activity (HEK293 [10]) | MIC [11] [µg/mL] | MIC (Staphylococcus aureus [12]) [µg/mL] | MIC (Streptococcus pneumoniae) [µg/mL] | log K [13] | MIC (Pseudomonas aeruginosa [14]) [µg/mL] | MBC (Staphylococcus aureus [15]) [µg/mL] | MBC (Bacillus spizizenii [16]) [µg/mL] | MBC (Staphylococcus aureus [17]) [µg/mL] | MBC (Pseudomonas aeruginosa [18]) [µg/mL] | also measured
1 | CCn1cc(C(=O)O)c(=O)c2cnc(N3CC[N+]4(CC3)CN3C(C)=CC(C)=C(C(=O)O)C3=N4)nc21.[Cl-] | > 512 | 256 | > 512 | Non-Toxic | > 512 | > 512 | > 512 | > 512 | > 512 | > 512 | Non-Toxic | > 512 | > 512 | > 512 | -0.5725 | > 512 | – | – | – | – | –
2 | CCn1cc(C(=O)O)c(=O)c2cc(F)c(N3CC[N+]4(CC3)CN3C(C)=CC(C)=C(C(=O)O)C3=N4)cc21.[Cl-] | 16 | 0.25 | 64 | Non-Toxic | 64 | 64 | 4 | 0.5 | 64 | > 512 | Non-Toxic | 32 | 128 | > 512 | -0.2721 | 256 | 128 | 64 | 128 | > 512 | MBC [19]: 32 µg/mL; MBC [20]: 128 µg/mL; MBC (Escherichia coli [21]): 8 µg/mL; MBC (Serratia marcescens [22]): 128 µg/mL; MBC (Staphylococcus aureus [23]): 128 µg/mL
3 | CCn1cc(C(=O)O)c(=O)c2cnc(N3CC[N+]4(CC3)CN3C(=N4)C(C(=O)O)=Cc4ccccc43)nc21.[Cl-] | 64 | 16 | 256 | Non-Toxic | 512 | 128 | 16 | 16 | 256 | > 512 | Non-Toxic | 8 | 512 | > 512 | -0.4434 | 128 | 512 | 64 | 256 | 128 | MBC [19]: 16 µg/mL; MBC [20]: 256 µg/mL; MBC (Escherichia coli [21]): 16 µg/mL; MBC (Serratia marcescens [22]): 128 µg/mL; MBC (Staphylococcus aureus [23]): 512 µg/mL
4 | CCn1cc(C(=O)O)c(=O)c2cc(F)c(N3CC[N+]4(CC3)CN3C(=N4)C(C(=O)O)=Cc4ccccc43)cc21.[Cl-] | 16 | 2 | 32 | Non-Toxic | 64 | 32 | 4 | 2 | 32 | > 512 | Non-Toxic | 64 | 64 | > 512 | -0.1044 | 64 | 64 | 16 | 32 | 64 | MBC [19]: 64 µg/mL; MBC [20]: 32 µg/mL; MBC (Escherichia coli [21]): 4 µg/mL; MBC (Serratia marcescens [22]): 32 µg/mL; MBC (Staphylococcus aureus [23]): 64 µg/mL
5 | CCn1cc(C(=O)O)c(=O)c2cnc(N3CCNCC3)nc21 [PIPEMIDIC ACID] | 2 (≈ 6.59 µM) | 0.004 (≈ 0.0132 µM) | 32 (≈ 105 µM) | – | 64 (≈ 211 µM) | 2 (≈ 6.59 µM) | 2 (≈ 6.59 µM) | 0.004 (≈ 0.0132 µM) | 32 (≈ 105 µM) | > 512 | – | 32 (≈ 105 µM) | 32 (≈ 105 µM) | > 512 | -0.1697 | 8 (≈ 26.4 µM) | 128 (≈ 422 µM) | 2 (≈ 6.59 µM) | 32 (≈ 105 µM) | 8 (≈ 26.4 µM) | MBC [19]: 64 µg/mL (≈ 211 µM); MBC [20]: 32 µg/mL (≈ 105 µM); MBC (Escherichia coli [21]): 2 µg/mL (≈ 6.59 µM); MBC (Serratia marcescens [22]): 2 µg/mL (≈ 6.59 µM); MBC (Staphylococcus aureus [23]): 32 µg/mL (≈ 105 µM)
